{"source": "the supplement of paper PMC10307832"}
{"compound": "C[C@@]1(C(=O)Nc2ccc(F)nc2)CCCN1c1nc(Nc2cc(C3CC3)n[nH]2)c2cccn2n1 + CC(C)C[C@H](NC(=O)[C@H](Cc1ccccc1)NC(=O)c1cnccn1)B(O)O [Bortezomib] (partner 0.002 µM)", "assay": "relative viability (nuclei count vs DMSO), 5 days (fraction); higher = more cells survive", "details": "first compound 1.265 µM", "in_short": "(§1)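 Lung cancer cell lines, seeded in 1536-well plates, were treated the following day by pin tool with a single drug or with five library-drug doses (not always all listed) in √10 steps on top of a fixed anchor-drug dose. Cells were fixed and nuclei stained in one step after 5 days, and nuclei were counted. Relative viability is the nuclei count for treated wells divided by that for vehicle wells, reported as medians of duplicate plates.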"}
{"cell line": "ABC-1", "relative viability": 0.183}
{"compound": "C[C@@]1(C(=O)Nc2ccc(F)nc2)CCCN1c1nc(Nc2cc(C3CC3)n[nH]2)c2cccn2n1 + O=C(CCCCCCC(=O)Nc1ccccc1)NO [Vorinostat] (partner 1 µM)", "assay": "relative viability (nuclei count vs DMSO), 5 days (fraction); higher = more cells survive", "details": "first compound 0.04 µM", "in_short": "as §1"}
{"cell line": "NCI-H2342", "relative viability": 0.803}
{"cell line": "NCI-H727", "relative viability": 1.3}
{"cell line": "NCI-H1650", "relative viability": 0.568}
{"cell line": "NCI-H1993", "relative viability": 0.663}
{"cell line": "SW 1573", "relative viability": 0.667}
{"cell line": "NCI-H838", "relative viability": 0.7}
{"cell line": "LCLC-103H", "relative viability": 0.763}
{"cell line": "NCI-H520", "relative viability": 0.668}
{"cell line": "NCI-H2126", "relative viability": 0.595}
{"cell line": "EMC-BAC-2", "relative viability": 0.37}
{"cell line": "NCI-H2085", "relative viability": 0.779}
{"cell line": "HCC-366", "relative viability": 0.395}
{"cell line": "NCI-H1666", "relative viability": 0.965}
{"cell line": "NCI-H596", "relative viability": 0.571}
{"cell line": "LK-2", "relative viability": 0.294}
{"cell line": "NCI-H2087", "relative viability": 0.635}
{"cell line": "NCI-H1648", "relative viability": 0.363}
{"cell line": "SK-MES-1", "relative viability": 1.21}
{"cell line": "H3255", "relative viability": 0.852}
{"cell line": "COR-L23", "relative viability": 0.345}
{"cell line": "COR-L 105", "relative viability": 0.845}
{"cell line": "IA-LM", "relative viability": 0.914}
{"cell line": "LOU-NH91", "relative viability": 0.961}
{"cell line": "NCI-H2170", "relative viability": 0.825}
{"cell line": "HCC-44", "relative viability": 1.08}
{"cell line": "NCI-H522", "relative viability": 0.864}
{"cell line": "SW 900", "relative viability": 0.557}
{"cell line": "NCI-H1395", "relative viability": 0.803}
{"cell line": "NCI-H1793", "relative viability": 0.79}
{"cell line": "NCI-H1944", "relative viability": 0.548}
{"cell line": "ABC-1", "relative viability": 1.23}
{"cell line": "NCI-H358", "relative viability": 0.451}
{"compound": "C[C@@]1(C(=O)Nc2ccc(F)nc2)CCCN1c1nc(Nc2cc(C3CC3)n[nH]2)c2cccn2n1 + O=C(CCCCCCC(=O)Nc1ccccc1)NO [Vorinostat] (partner 1 µM)", "assay": "relative viability (nuclei count vs DMSO), 5 days (fraction); higher = more cells survive", "details": "first compound 0.1265 µM", "in_short": "as §1"}
{"cell line": "NCI-H2342", "relative viability": 0.708}
{"cell line": "NCI-H727", "relative viability": 0.774}
{"cell line": "NCI-H1650", "relative viability": 0.445}
{"cell line": "NCI-H1993", "relative viability": 0.413}
{"cell line": "SW 1573", "relative viability": 0.585}
{"cell line": "NCI-H838", "relative viability": 0.627}
{"cell line": "LCLC-103H", "relative viability": 0.62}
{"cell line": "NCI-H520", "relative viability": 0.668}
{"cell line": "NCI-H2126", "relative viability": 0.352}
{"cell line": "EMC-BAC-2", "relative viability": 0.343}
{"cell line": "NCI-H2085", "relative viability": 0.728}
{"cell line": "HCC-366", "relative viability": 0.315}
{"cell line": "NCI-H1666", "relative viability": 0.729}
{"cell line": "NCI-H596", "relative viability": 0.449}
{"cell line": "LK-2", "relative viability": 0.182}
{"cell line": "NCI-H2087", "relative viability": 0.774}
{"cell line": "NCI-H1648", "relative viability": 0.332}
{"cell line": "SK-MES-1", "relative viability": 1.05}
{"cell line": "H3255", "relative viability": 0.816}
{"cell line": "COR-L23", "relative viability": 0.323}
{"cell line": "COR-L 105", "relative viability": 0.611}
{"cell line": "IA-LM", "relative viability": 0.999}
{"cell line": "LOU-NH91", "relative viability": 0.856}
{"cell line": "NCI-H2170", "relative viability": 0.729}
{"cell line": "HCC-44", "relative viability": 1.02}
{"cell line": "NCI-H522", "relative viability": 0.809}
{"cell line": "SW 900", "relative viability": 0.426}
{"cell line": "NCI-H1395", "relative viability": 0.415}
{"cell line": "NCI-H1793", "relative viability": 0.613}
{"cell line": "NCI-H1944", "relative viability": 0.448}
{"cell line": "ABC-1", "relative viability": 0.819}
{"cell line": "NCI-H358", "relative viability": 0.35}
{"compound": "C[C@@]1(C(=O)Nc2ccc(F)nc2)CCCN1c1nc(Nc2cc(C3CC3)n[nH]2)c2cccn2n1 + O=C(CCCCCCC(=O)Nc1ccccc1)NO [Vorinostat] (partner 1 µM)", "assay": "relative viability (nuclei count vs DMSO), 5 days (fraction); higher = more cells survive", "details": "first compound 0.4 µM", "in_short": "as §1"}
{"cell line": "NCI-H2342", "relative viability": 0.696}
{"cell line": "NCI-H727", "relative viability": 0.774}
{"cell line": "NCI-H1650", "relative viability": 0.494}
{"cell line": "NCI-H1993", "relative viability": 0.44}
{"cell line": "SW 1573", "relative viability": 0.482}
{"cell line": "NCI-H838", "relative viability": 0.535}
{"cell line": "LCLC-103H", "relative viability": 0.593}
{"cell line": "NCI-H520", "relative viability": 0.685}
{"cell line": "NCI-H2126", "relative viability": 0.315}
{"cell line": "EMC-BAC-2", "relative viability": 0.304}
{"cell line": "NCI-H2085", "relative viability": 0.69}
{"cell line": "HCC-366", "relative viability": 0.2}
{"cell line": "NCI-H1666", "relative viability": 0.77}
{"cell line": "NCI-H596", "relative viability": 0.528}
{"cell line": "LK-2", "relative viability": 0.151}
{"cell line": "NCI-H2087", "relative viability": 0.473}
{"cell line": "NCI-H1648", "relative viability": 0.221}
{"cell line": "SK-MES-1", "relative viability": 0.859}
{"cell line": "H3255", "relative viability": 0.815}
{"cell line": "COR-L23", "relative viability": 0.115}
{"cell line": "COR-L 105", "relative viability": 0.579}
{"cell line": "IA-LM", "relative viability": 0.836}
{"cell line": "LOU-NH91", "relative viability": 0.747}
{"cell line": "NCI-H2170", "relative viability": 0.819}
{"cell line": "HCC-44", "relative viability": 0.887}
{"cell line": "NCI-H522", "relative viability": 0.69}
{"cell line": "SW 900", "relative viability": 0.432}
{"cell line": "NCI-H1395", "relative viability": 0.629}
{"cell line": "NCI-H1793", "relative viability": 0.507}
{"cell line": "NCI-H1944", "relative viability": 0.482}
{"cell line": "ABC-1", "relative viability": 0.708}
{"cell line": "NCI-H358", "relative viability": 0.203}
{"compound": "C[C@@]1(C(=O)Nc2ccc(F)nc2)CCCN1c1nc(Nc2cc(C3CC3)n[nH]2)c2cccn2n1 + O=C(CCCCCCC(=O)Nc1ccccc1)NO [Vorinostat] (partner 1 µM)", "assay": "relative viability (nuclei count vs DMSO), 5 days (fraction); higher = more cells survive", "details": "first compound 1.265 µM", "in_short": "as §1"}
{"cell line": "NCI-H2342", "relative viability": 0.582}
{"cell line": "NCI-H727", "relative viability": 0.474}
{"cell line": "NCI-H1650", "relative viability": 0.311}
{"cell line": "NCI-H1993", "relative viability": 0.422}
{"cell line": "SW 1573", "relative viability": 0.263}
{"cell line": "NCI-H838", "relative viability": 0.266}
{"cell line": "LCLC-103H", "relative viability": 0.563}
{"cell line": "NCI-H520", "relative viability": 0.489}
{"cell line": "NCI-H2126", "relative viability": 0.425}
{"cell line": "EMC-BAC-2", "relative viability": 0.178}
{"cell line": "NCI-H2085", "relative viability": 0.569}
{"cell line": "HCC-366", "relative viability": 0.0599}
{"cell line": "NCI-H1666", "relative viability": 0.82}
{"cell line": "NCI-H596", "relative viability": 0.466}
{"cell line": "LK-2", "relative viability": 0.202}
{"cell line": "NCI-H2087", "relative viability": 0.357}
{"cell line": "NCI-H1648", "relative viability": 0.443}
{"cell line": "SK-MES-1", "relative viability": 0.354}
{"cell line": "H3255", "relative viability": 0.829}
{"cell line": "COR-L23", "relative viability": 0.109}
{"cell line": "COR-L 105", "relative viability": 0.604}
{"cell line": "IA-LM", "relative viability": 0.928}
{"cell line": "LOU-NH91", "relative viability": 0.711}
{"cell line": "NCI-H2170", "relative viability": 0.743}
{"cell line": "HCC-44", "relative viability": 1.08}
{"cell line": "NCI-H522", "relative viability": 0.875}
{"cell line": "SW 900", "relative viability": 0.468}
{"cell line": "NCI-H1395", "relative viability": 0.528}
{"cell line": "NCI-H1793", "relative viability": 0.202}
{"cell line": "NCI-H1944", "relative viability": 0.545}
{"cell line": "ABC-1", "relative viability": 0.409}
{"cell line": "NCI-H358", "relative viability": 0.156}
